Assay results reported in patent publication US20240360174A1, “CELL-PENETRATING PEPTIDE SEQUENCES” (Ohio State Innovation Foundation, priority 2016, published 2024).
Square brackets hold non-standard residues; d marks the D form. Phe(4-F) = N[C@@H](Cc1ccc(F)cc1)C(=O)O; 2Nal = N[C@@H](Cc1ccc2ccccc2c1)C(=O)O; d2Nal = N[C@H](Cc1ccc2ccccc2c1)C(=O)O; Pip = O=C(O)[C@@H]1CCCCN1

Test system: HeLa cells
Assay: Cellular uptake / cytosolic delivery efficiency of NF-labelled peptides by flow cytometry
Assay type: cell-based
Conditions: 2 h, 5 mM naphthofluorescein-labelled peptide, relative to CPP 1 (100%), mean ± S.D. of three independent experiments
Text: Absolute cytosolic delivery efficiency is the ratio of cytosolic concentration of a CPP (or a CPP-cargo conjugate) over the concentration of the CPP (or the CPP-cargo conjugate) in the growth medium. Relative cytosolic delivery efficiency refers to the concentration of a CPP in the cytosol compared to the concentration of a control CPP in the cytosol. Quantification can be achieved by fluorescently labeling the CPP (e.g., with a FTIC dye) and measuring the fluorescence intensity using techniques well-known in the art.
In particular embodiments, relative cytosolic delivery efficiency is determined by comparing (i) the amount of a CPP of the invention internalized by a cell type (e.g., HeLa cells) to (ii) the amount of the control CPP internalized by the same cell type. To measure relative cytosolic delivery efficiency, the cell type may be incubated in the presence of a cell-penetrating peptide of the invention for a specified period of time (e.g., 30 minutes, 1 hour, 2 hours, etc.) after which the amount of the CPP internalized by the cell is quantified using methods known in the art, e.g., fluorescence microscopy. Separately, the same concentration of the control CPP is incubated in the presence of the cell type over the same period of time, and the amount of the control CPP internalized by the cell is quantified.
To determine cellular uptake efficiency of the CPPs disclosed herein, HeLa cells were cultured in 12-well plates (1.5×10^5 cells per well) overnight. The cells were incubated for 2 h with […] naphthofluorescein (NF)-labelled peptide in cellular media. At the end of incubation, the cells were washed with DPBS twice, detached from the plate with 0.25% trypsin, diluted into clear DMEM, pelleted at 250 g for 5 min, washed twice with DPBS, resuspended in DPBS, and analyzed on a BD FACS LSR II flow cytometer. For NF-labelled peptides, a 633-nm laser was used for excitation and the fluorescence emission was analyzed in the APC channel. Absolute cellular uptake efficiency was determined by comparing the concentration (via fluorescence intensity) of the CPP in the cytosol to the concentration in the extracellular medium.

| Substance | Relative Cytosolic Delivery Efficiency [%] |
| --- | --- |
| cyclo(FfFrRrQ) (cyclo(F[dF]F[dR]R[dR]Q); SMILES N=C(N)NCCC[C@@H]1NC(=O)[C@@H](CCCNC(=N)N)NC(=O)[C@H](Cc2ccccc2)NC(=O)[C@@H](Cc2ccccc2)NC(=O)[C@H](Cc2ccccc2)NC(=O)[C@H](CCC(N)=O)NC(=O)[C@@H](CCCNC(=N)N)NC1=O) [SAR 60] | 205 ± 30 |
| cyclo(FΦRRRQ) (cyclo(F[2Nal]RRRRQ); SMILES N=C(N)NCCC[C@@H]1NC(=O)[C@H](CCCNC(=N)N)NC(=O)[C@H](CCCNC(=N)N)NC(=O)[C@H](Cc2ccc3ccccc3c2)NC(=O)[C@H](Cc2ccccc2)NC(=O)[C@H](CCC(N)=O)NC(=O)[C@H](CCCNC(=N)N)NC1=O) [SAR 1, control CPP, reference compound] | 100 ± 6 |
| cyclo(FΦRrRrQ) (cyclo(F[2Nal]R[dR]R[dR]Q); SMILES N=C(N)NCCC[C@@H]1NC(=O)[C@H](Cc2ccc3ccccc3c2)NC(=O)[C@H](Cc2ccccc2)NC(=O)[C@H](CCC(N)=O)NC(=O)[C@@H](CCCNC(=N)N)NC(=O)[C@H](CCCNC(=N)N)NC(=O)[C@@H](CCCNC(=N)N)NC1=O) [SAR 55] | 212 ± 42 |
| cyclo(FΦrRrQ) (cyclo(F[2Nal][dR]R[dR]Q); SMILES N=C(N)NCCC[C@@H]1NC(=O)[C@@H](CCCNC(=N)N)NC(=O)[C@H](Cc2ccc3ccccc3c2)NC(=O)[C@H](Cc2ccccc2)NC(=O)[C@H](CCC(N)=O)NC(=O)[C@@H](CCCNC(=N)N)NC1=O) [SAR 64] | 63 ± 11 |
| cyclo(GΦRRRQ) [SAR 25] (cyclo(G[2Nal]RRRQ); SMILES N=C(N)NCCC[C@@H]1NC(=O)[C@H](Cc2ccc3ccccc3c2)NC(=O)CNC(=O)[C@H](CCC(N)=O)NC(=O)[C@H](CCCNC(=N)N)NC(=O)[C@H](CCCNC(=N)N)NC1=O) | 49 ± 5 |
| cyclo(GΦRRRQ) [SAR 44] (cyclo(G[2Nal]RRRRQ); SMILES N=C(N)NCCC[C@@H]1NC(=O)[C@H](Cc2ccc3ccccc3c2)NC(=O)CNC(=O)[C@H](CCC(N)=O)NC(=O)[C@H](CCCNC(=N)N)NC(=O)[C@H](CCCNC(=N)N)NC(=O)[C@H](CCCNC(=N)N)NC1=O) | 55 ± 5 |
| cyclo(Pip-Nal-Arg-Arg-arg-arg-glu) (cyclo([Pip][2Nal]RR[dR][dR][dE]); SMILES N=C(N)NCCC[C@@H]1NC(=O)[C@H](Cc2ccc3ccccc3c2)NC(=O)[C@@H]2CCCCN2C(=O)[C@@H](CCC(=O)O)NC(=O)[C@@H](CCCNC(=N)N)NC(=O)[C@@H](CCCNC(=N)N)NC(=O)[C@H](CCCNC(=N)N)NC1=O) [Pin1 16] | 18 ± 2 |
| cyclo(Pip-Nal-Arg-Glu-arg-arg-glu) (cyclo([Pip][2Nal]RE[dR][dR][dE]); SMILES N=C(N)NCCC[C@@H]1NC(=O)[C@H](Cc2ccc3ccccc3c2)NC(=O)[C@@H]2CCCCN2C(=O)[C@@H](CCC(=O)O)NC(=O)[C@@H](CCCNC(=N)N)NC(=O)[C@@H](CCCNC(=N)N)NC(=O)[C@H](CCC(=O)O)NC1=O) [Pin1 15] | 7.7 ± 0.5 |
| cyclo(Pip-Nal-Nal-Arg-arg-arg-Glu) [Pin1 18] | 340 ± 130 |
| cyclo(Pip-Nal-Nal-Arg-arg-arg-glu) [Pin1 17] | 506 ± 120 |
| cyclo(Pip-Nal-Phe-Arg-arg-arg-Glu) [Pin1 20] | 15 ± 6 |
| cyclo(Pip-Nal-Phe-Arg-arg-arg-glu) (cyclo([Pip][2Nal]FR[dR][dR][dE]); SMILES N=C(N)NCCC[C@@H]1NC(=O)[C@H](Cc2ccccc2)NC(=O)[C@H](Cc2ccc3ccccc3c2)NC(=O)[C@@H]2CCCCN2C(=O)[C@@H](CCC(=O)O)NC(=O)[C@@H](CCCNC(=N)N)NC(=O)[C@@H](CCCNC(=N)N)NC1=O) [Pin1 19] | 19 ± 16 |
| cyclo(Pip-Nal-nal-Arg-arg-arg-Glu) [Pin1 23] | 215 ± 86 |
| cyclo(Pip-Nal-nal-Arg-arg-arg-glu) [Pin1 24] | 141 ± 64 |
| cyclo(Pip-Nal-phe-Arg-arg-arg-Glu) (cyclo([Pip][2Nal][dF]R[dR][dR]E); SMILES N=C(N)NCCC[C@@H]1NC(=O)[C@@H](Cc2ccccc2)NC(=O)[C@H](Cc2ccc3ccccc3c2)NC(=O)[C@@H]2CCCCN2C(=O)[C@H](CCC(=O)O)NC(=O)[C@@H](CCCNC(=N)N)NC(=O)[C@@H](CCCNC(=N)N)NC1=O) [Pin1 22] | 15 ± 6 |
| cyclo(Pip-Nal-phe-Arg-arg-arg-glu) (cyclo([Pip][2Nal][dF]R[dR][dR][dE]); SMILES N=C(N)NCCC[C@@H]1NC(=O)[C@@H](Cc2ccccc2)NC(=O)[C@H](Cc2ccc3ccccc3c2)NC(=O)[C@@H]2CCCCN2C(=O)[C@@H](CCC(=O)O)NC(=O)[C@@H](CCCNC(=N)N)NC(=O)[C@@H](CCCNC(=N)N)NC1=O) [Pin1 21] | 27 ± 15 |

| Substance | Relative Cytosolic Delivery Efficiency [%] |
| --- | --- |
| cyclo(RFFFRRRQ) (cyclic) [SAR 48] | 167 ± 10 |
| cyclo(RFFRFRQ) (cyclic) [SAR 43] | 96 ± 31 |
| cyclo(RFFRRRQ) (cyclic) [SAR 31] | 63 ± 19 |
| cyclo(RFFRRRRQ) (cyclic) [SAR 46] | 104 ± 5 |
| cyclo(RFRRFRQ) (cyclic) [SAR 32] | 94 ± 9 |
| cyclo(RRFFFRQ) (cyclic) [SAR 37] | 172 ± 24 |
| cyclo(RRFFFRRQ) (cyclic) [SAR 49] | 112 ± 20 |
| cyclo(RRFFRRRQ) (cyclic) [SAR 47] | 115 ± 20 |
| cyclo(XXRRRRQ) (cyclo([Phe(4-F)][Phe(4-F)]RRRRQ); SMILES N=C(N)NCCC[C@@H]1NC(=O)[C@H](CCCNC(=N)N)NC(=O)[C@H](CCCNC(=N)N)NC(=O)[C@H](Cc2ccc(F)cc2)NC(=O)[C@H](Cc2ccc(F)cc2)NC(=O)[C@H](CCC(N)=O)NC(=O)[C@H](CCCNC(=N)N)NC1=O) [SAR 56] | 165 ± 22 |
| cyclo(fFfRrRQ) (cyclo([dF]F[dF]R[dR]RQ); SMILES N=C(N)NCCC[C@@H]1NC(=O)[C@@H](CCCNC(=N)N)NC(=O)[C@H](CCCNC(=N)N)NC(=O)[C@@H](Cc2ccccc2)NC(=O)[C@H](Cc2ccccc2)NC(=O)[C@@H](Cc2ccccc2)NC(=O)[C@H](CCC(N)=O)NC1=O) [SAR 59] | 185 ± 91 |
| cyclo(fFfrRrQ) (cyclo([dF]F[dF][dR]R[dR]Q); SMILES N=C(N)NCCC[C@@H]1NC(=O)[C@@H](CCCNC(=N)N)NC(=O)[C@@H](Cc2ccccc2)NC(=O)[C@H](Cc2ccccc2)NC(=O)[C@@H](Cc2ccccc2)NC(=O)[C@H](CCC(N)=O)NC(=O)[C@@H](CCCNC(=N)N)NC1=O) [SAR 58] | 280 ± 106 |
| cyclo(fFΦrRrQ) (cyclo([dF]F[d2Nal][dR]R[dR]Q); SMILES N=C(N)NCCC[C@@H]1NC(=O)[C@@H](CCCNC(=N)N)NC(=O)[C@@H](Cc2ccc3ccccc3c2)NC(=O)[C@H](Cc2ccccc2)NC(=O)[C@@H](Cc2ccccc2)NC(=O)[C@H](CCC(N)=O)NC(=O)[C@@H](CCCNC(=N)N)NC1=O) [SAR 61] | 330 ± 101 |
| cyclo(fΦfrRrQ) (cyclo([dF][2Nal][dF][dR]R[dR]Q); SMILES N=C(N)NCCC[C@@H]1NC(=O)[C@@H](CCCNC(=N)N)NC(=O)[C@@H](Cc2ccccc2)NC(=O)[C@H](Cc2ccc3ccccc3c2)NC(=O)[C@@H](Cc2ccccc2)NC(=O)[C@H](CCC(N)=O)NC(=O)[C@@H](CCCNC(=N)N)NC1=O) [SAR 62] | 357 ± 59 |
| cyclo(fΦrRrQ) (cyclo([dF][2Nal][dR]R[dR]Q); SMILES N=C(N)NCCC[C@@H]1NC(=O)[C@@H](CCCNC(=N)N)NC(=O)[C@H](Cc2ccc3ccccc3c2)NC(=O)[C@@H](Cc2ccccc2)NC(=O)[C@H](CCC(N)=O)NC(=O)[C@@H](CCCNC(=N)N)NC1=O) [SAR 65] | 172 ± 37 |
| cyclo(ΦFfrRrQ) (cyclo([d2Nal]F[dF][dR]R[dR]Q); SMILES N=C(N)NCCC[C@@H]1NC(=O)[C@@H](CCCNC(=N)N)NC(=O)[C@@H](Cc2ccccc2)NC(=O)[C@H](Cc2ccccc2)NC(=O)[C@@H](Cc2ccc3ccccc3c2)NC(=O)[C@H](CCC(N)=O)NC(=O)[C@@H](CCCNC(=N)N)NC1=O) [SAR 63] | 50 ± 9 |
